Data from patent US20160159814A1, “GLYCINE TRANSPORTER INHIBITOR” (TAISHO PHARMACEUTICAL CO., LTD., priority 2013, published 2016).

These compounds were tested against T1, human type 1 glycine transporter (GlyT1) (Homo sapiens, UniProt P48067) (assay: Glycine uptake inhibition experiment ([3H] glycine uptake in T98G cells expressing GlyT1)). Conditions: not given.
T1 construct: T98G cells (glioma cells) expressing human type 1 glycine transporter (GlyT1) were used; endogenous in cells; host or cells: T98G cells (human glioma cells)
T1 sequence (P48067 1-706): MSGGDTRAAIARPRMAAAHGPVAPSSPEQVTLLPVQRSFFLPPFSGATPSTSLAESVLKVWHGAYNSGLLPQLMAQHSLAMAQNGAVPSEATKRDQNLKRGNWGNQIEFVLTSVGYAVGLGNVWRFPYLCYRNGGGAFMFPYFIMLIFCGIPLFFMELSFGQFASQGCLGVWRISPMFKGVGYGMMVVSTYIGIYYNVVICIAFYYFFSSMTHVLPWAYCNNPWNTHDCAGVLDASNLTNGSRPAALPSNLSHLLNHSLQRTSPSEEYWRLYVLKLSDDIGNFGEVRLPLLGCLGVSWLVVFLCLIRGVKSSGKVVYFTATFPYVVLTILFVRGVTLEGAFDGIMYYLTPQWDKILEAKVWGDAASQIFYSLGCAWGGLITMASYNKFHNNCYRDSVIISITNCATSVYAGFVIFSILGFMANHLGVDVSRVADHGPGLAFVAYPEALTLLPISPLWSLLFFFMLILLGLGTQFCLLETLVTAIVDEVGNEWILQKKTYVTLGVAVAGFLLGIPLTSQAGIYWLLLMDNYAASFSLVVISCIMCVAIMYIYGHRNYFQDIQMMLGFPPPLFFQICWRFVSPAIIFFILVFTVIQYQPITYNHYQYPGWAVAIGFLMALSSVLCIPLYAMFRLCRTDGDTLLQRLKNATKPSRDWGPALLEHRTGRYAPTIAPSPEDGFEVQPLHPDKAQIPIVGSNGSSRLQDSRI
Type: cell-based
How it was run: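 T98G glioma cells expressing human GlyT1 were pretreated 10 min with compound in HEPES buffer pH 7.4 (0.2% BSA), then incubated with compound plus 250 nM final [3H]glycine for 15 min at room temperature. Intracellular radioactivity was counted after NaOH lysis; 10 μM ALX5407 defined non-specific uptake. IC50 came from 10^−9–10^−5 M curves.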

**Q.** With `C[C@H](O)c1cccc2c1C(F)(F)C(=O)N2Cc1ccc(OC(F)F)nc1` [Compound 215, 1-{[6 (difluoromethoxy)pyridin-3-yl]methyl}-3,3-difluoro-4-[(1S)-1-hydroxyethyl]-1,3-dihydro-2H-indol-2-one] as the compound, how does the IC50 read?
**A.** 240 nM

**Q.** Which IC50 does the source give for `C[C@H](O)c1cccc2c1C(F)(F)C(=O)N2Cc1ccc(C(F)(F)F)c(C#N)n1` [Compound 216, 6-({3,3-difluoro-4-[(1S)-1-hydroxyethyl]-2-oxo-2,3-dihydro-1H-indol-1-yl}methyl)-3-(trifluoromethyl) pyridine-2-carbonitrile] here?
**A.** 9.4 nM

**Q.** `O=C1N(Cc2ccc(C(F)(F)F)nc2)c2cccc(C(O)C(F)F)c2C1(F)F` (single isomer, unassigned) [Compound 161, 4-(2,2-difluoro-1-hydroxyethyl)-3,3-difluoro-1-{[6-(trifluoromethyl)pyridin-3-yl]methyl}-1,3-dihydro-2H-indol-2-one] was tested. Which IC50 did it give?
**A.** 90 nM

**Q.** Which IC50 does the source give for `COc1cc(CN2C(=O)C(F)(F)c3c([C@@H](O)C(F)(F)F)cccc32)ccn1` [Compound 166, 3,3-difluoro-1-[(2-methoxypyridin-4-yl)methyl]-4-[(1R)-2,2,2-trifluoro-1-hydroxyethyl]-1,3-dihydro-2H-indol-2-one] here?
**A.** 26 nM

**Q.** With `COc1cccc(CN2C(=O)C(F)(F)c3c(C(O)C(F)F)cccc32)n1` (single isomer, unassigned) [Compound 256, 4-(2,2-difluoro-1-hydroxyethyl)-3,3-difluoro-1-[(6-methoxypyridin-2-yl)methyl)-1,3-dihydro-2H-indol-2-one] as the compound, how does the IC50 read?
**A.** 9.6 nM

**Q.** `C[C@H](O)c1cccc2c1C(F)(F)C(=O)N2Cc1ccc(F)c(Cl)n1` [Compound 237, 1-[(6-chloro-5-fluoropyridin-2-yl)methyl]-3,3-difluoro-4-[(1S)-1-hydroxyethyl]-1,3-dihydro-2H-indol-2-one] was tested. Which IC50 did it give?
**A.** 2.9 nM

**Q.** `N#Cc1cccc(CN2C(=O)C(F)(F)c3c(C(O)C(F)F)cccc32)n1` (single isomer, unassigned) [Compound 176, 6-{[4-(2,2-difluoro-1-hydroxyethyl)-3,3-difluoro-2-oxo-2,3-dihydro-1H-indol-1-yl]methyl}pyridine-2-carbonitrile] was tested. Which IC50 did it give?
**A.** 41 nM

**Q.** With `C[C@H](O)c1cccc2c1C(F)(F)C(=O)N2Cc1ccc(-n2cncn2)nc1` [Compound 193, 3,3-difluoro-4-[(1S)-1-hydroxyethyl]-1-{[6-(1H-1,2,4-biazol-1-yl)pyridin-3-yl]methyl}-1,3-dihydro-2H-indol-2-one] as the compound, how does the IC50 read?
**A.** 1400 nM

**Q.** Which IC50 does the source give for `Cn1c(=O)c(CN2C(=O)C(F)(F)c3c(C(O)C(F)F)cccc32)nc2ccccc21` (single isomer, unassigned) [Compound 167, 3-{[4-(2,2-difluoro-1-hydroxyethyl)-3,3-difluoro-2-oxo-2,3-dihydro-1H-indol-1-yl]methyl)-1-methylquinoxalin-2(1H)-one] here?
**A.** 62 nM

**Q.** Which IC50 does the source give for `COc1ccncc1CN1C(=O)C(F)(F)c2c([C@H](C)O)cccc21` [Compound 209, 3,3-difluoro-4-[(1S)-1-hydroxyethyl]-1-[(4-methoxypyridin-3-yl)methyl]-1,3-dihydro-2H-indol-2-one] here?
**A.** 2800 nM

**Q.** For `C[C@H](O)c1cccc2c1C(F)(F)C(=O)N2Cc1ccc(Cl)nn1` [Compound 204, 1-[(6-chloropyridazin-3-yl)methyl]-3,3-difluoro-4-[(1S)-1-hydroxyethyl]-1,3-dihydro-2H-indol-2-one], which IC50 is on record?
**A.** 110 nM

**Q.** How did the IC50 turn out when `O=C1N(Cc2nc3cc(F)ccc3o2)c2cccc(C(O)C(F)F)c2C1(F)F` (single isomer, unassigned) [Compound 171, 4-(2,2-difluoro-1-hydroxyethyl)-3,3-difluoro-1-[(5-fluoro-1,3-benzoxazol-2-yl)methyl]-1,3-dihydro-2H-indol-2-one] was run?
**A.** 170 nM

Same assay, conditions: glycine uptake inhibition

**Q.** Which IC50 does the source give for `C[C@H](O)c1cccc2c1C(F)(F)C(=O)N2Cc1cncc(C#N)c1` [Compound 70, 5-({3,3-difluoro-4-[(1S)-1-hydroxyethyl]-2-oxo-2,3-dihydro-1H-indol-1-yl}methyl)pyridine-3-carbonitile] here?
**A.** 91 nM

**Q.** With `CC(O)c1cccc2c1C(F)(F)C(=O)N2Cc1ccnc(F)c1` (stereo not shown) [Compound 29, 3,3-difluoro-1-[(2-fluoropyridin-4-yl)methyl]-4-(1-hydroxyethyl)-1,3-dihydro-2H-indol-2-one] as the compound, how does the IC50 read?
**A.** 77 nM

**Q.** For `C[C@H](O)c1cccc2c1C(F)(F)C(=O)N2Cc1cccc(F)c1` [Compound 56, 3,3-difluoro-1-(3-fluorobenzyl)-4-[(1S)-1-hydroxyethyl)-1,3-dihydro-2H-indol-2-one], which IC50 is on record?
**A.** 9.1 nM

**Q.** How did the IC50 turn out when `C[C@H](O)c1cccc2c1C(F)(F)C(=O)N2Cc1ccc(C#N)cn1` [Compound 113, 6-({3,3-difluoro-4-[(1S)-1-hydroxyethyl]-2-oxo-2,3-dihydro-1H-indol-1-yl}methyl)pyridine-3-carbonitrile] was run?
**A.** 940 nM

**Q.** How did the IC50 turn out when `O=C1N(Cc2ccnc(F)c2)c2cccc(C(O)C(F)F)c2C1(F)F` (stereo not shown) [Compound 150, 4-(2,2-difluoro-1-hydroxyethyl)-3,3-difluoro-1-[(2-fluoropyridin-4-yl)methyl]-1,3-dihydro-2H-indol-2-one] was run?
**A.** 310 nM

**Q.** How did the IC50 turn out when `O=C1N(Cc2cccc(Cl)n2)c2cccc(C(O)C(F)(F)F)c2C1(F)F` (stereo not shown) [Compound 2, 1-[(6-chloropyridin-2-yl)methyl]-3,3-difluoro-4-(2,2,2-trifluoro-1-hydroxyethyl)-1,3-dihydro-2H-indol-2-one] was run?
**A.** 51 nM

**Q.** `C[C@H](O)c1cccc2c1C(F)(F)C(=O)N2Cc1ccc(F)nc1` [Compound 128, 3,3-difluoro-1-[(S-fluoropyridin-3-yl)methyl]-4-[(1S)-1-hydroxyethyl]-1,3-dihydro-2H-indol-2-one] was tested. Which IC50 did it give?
**A.** 52 nM

**Q.** How did the IC50 turn out when `C[C@H](O)c1cccc2c1C(F)(F)C(=O)N2Cc1cc(C(F)(F)F)ccn1` [Compound 96, 3,3-difluoro-4-[(1S)-1-hydroxyethyl]-1-{[4-(trifluoromethyl)pyridin-2-yl]methyl}-1,3-dihydro-2H-indol-2-one] was run?
**A.** 51 nM

**Q.** Which IC50 does the source give for `Cn1c(=O)c(CN2C(=O)C(F)(F)c3c([C@@H](O)C(F)(F)F)cccc32)nc2ccccc21` [Compound 141, 3-({3,3-difluoro-2-oxo-4-[(1R)-2,2,2-trifluoro-1-hydroxyethyl]-2,3-dihydro-1H-indol-1-yl}methyl)-1-methylquinoxalin-2(1H)-one] here?
**A.** 100 nM

**Q.** How did the IC50 turn out when `CC(C)(O)c1cccc2c1C(F)(F)C(=O)N2Cc1cccc(Cl)n1` [Compound 12, 1-[(6-chloropyridin-2-yl)methyl]-3,3-difluoro-4-(2-hydroxypropan-2-yl)-1,3-dihydro-2H-indol-2-one] was run?
**A.** 700 nM

Same assay, conditions: table section whose head prints (μm)

**Q.** Which IC50 does the source give for `O=C1N(Cc2cccc(C(F)(F)F)n2)c2cccc(C(O)C(F)F)c2C1(F)F` (single isomer, unassigned) [Compound 257, 4-(2,2-difluoro-1-hydroxyethyl)-3,3-difluoro-1-{[6-(trifluoromethyl)pyridin-2-yl]methyl)-1,3-dihydro-2H-indol-2-one] here?
**A.** 110 nM

**Q.** Which IC50 does the source give for `N#Cc1cc(CN2C(=O)C(F)(F)c3c(C(O)C(F)F)cccc32)cnc1F` (single isomer, unassigned) [Compound 272, 5-{[4-(2,2-difluoro-1-hydroxyethyl)-3,3-difluoro-2-oxo-2,3-dihydro-1H-indol-1-yl]methyl}-2-fluoropyridine-3-carbonitrile] here?
**A.** 27 nM

**Q.** Which IC50 does the source give for `COc1cc(CN2C(=O)C(F)(F)c3c([C@H](C)O)cccc32)ncc1F` [Compound 261, 3,3-difluoro-1-[(5-fluoro-4-methoxypyridin-2-yl)methyl)-[(1S)-1-hydroxyethyl]-1,3-dihydro-2H-indol-2-one] here?
**A.** 250 nM
